Counter-ions that a name gives are not always drawn.
Tested on: SB.mhdgc-1
Assay: AC50 for growth inhibition (viability) (log10 M); higher = less potent
Details: SB.mhdgc-1 (hereditary c.1380delA CDH1 gastric cancer)
Summary of the method: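 Values are log half-maximal activity concentrations from four-parameter fits of DMSO-normalised viability, restricted to high-quality curve classes. Patient-derived gastric cancer cells, hereditary or sporadic, were plated at 500 cells per 1536 well in 5 μL medium and given 23 nL compound in DMSO by pintool across 11 threefold dilutions, the top final concentration being 46 μM. Viability was read by ViewLux luminescence after 48 h and a 30 min CellTiter-Glo step at room temperature.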

| SMILES | AC50 for growth inhibition (log10 M) |
| --- | --- |
| O=C1NC(=O)/C(=C/c2ccc3nccc(-c4ccncc4)c3c2)S1 [GSK-615] | -6.33 |
| CCOC(=O)\C1=C\[C@]2(CC)CCCN3CCC4=C([C@H]23)[N]1C5=C4C=CC=C5 [Vinpocetine] | -4.93 |
| Nc1nc(Cl)nc2c1ncn2[C@H]1C[C@H](O)[C@@H](CO)O1 [Cladribine] | -6.58 |
| Cc1nc(Nc2n[nH]c3c2CN(C(=O)N[C@H](CN(C)C)c2ccccc2)C3(C)C)c2sccc2n1 | -5.98 |
| CN(C)c1ccc(O)c2c1C[C@H]1C[C@H]3[C@H](N(C)C)C(O)=C(C(N)=O)C(=O)[C@@]3(O)C(O)=C1C2=O [Minocycline] | -5.43 |
| CC[C@@H]1C(=O)N(C)c2cnc(Nc3ccc(C(=O)NC4CCC(N5CCN(CC6CC6)CC5)CC4)cc3OC)nc2N1C(C)C (stereo partly drawn) [Volasertib] | -5.08 |
| OC[C@H]1O[C@H](C[C@@H]1O)N2/C=C(C(=O)NC2=O)/C(F)(F)F [Trifluridine] | -6.48 |
| CC(C)C1=C(O)C=C(O)C(=C1)C/2=N/NC(=O)N2C3=CC4=C(C=C3)[N](C)C=C4 [Ganetespib] | -7.33 |
| CC1(C)S[C@H]2[C@H](NC(=O)[C@@H](N)C3=CC=C(O)C=C3)C(=O)[N@]2[C@H]1C(O)=O [Amoxicillin sodium] | -5.53 |
| COc1cccc2c(NCc3ccccc3)nc(-n3c(N)nc4ccccc43)nc12 | -5.13 |
| CC(C)C[C@@H](C=O)NC(=O)[C@H](CC(C)C)NC(=O)[C@H](CC(C)C)NC(=O)OCc1ccccc1 [MG-132] | -6.33 |
| CC[C@@]1(O)C(=O)OC\C2=C1\C=C\3N(CC4=C3N=C5C=CC=CC5=C4)C2=O [Camptothecin] | -7.93 |
| Cc1c(NC(=O)OC[C@@H]2COCCN2)cn2ncnc(Nc3ccc4c(cnn4Cc4cccc(F)c4)c3)c12 [AC-480] | -6.53 |
| COc1cc2nccc(Oc3ccc(NC(=O)C4(C(=O)Nc5ccc(F)cc5)CC4)cc3)c2cc1OC [Cabozantinib] | -6.33 |
| O=C(OC)[C@]12CC[C@@]3(C)[C@]4(C)CC[C@H]5[C@@](C)(C)C(=O)C(=C[C@]5(C)C4=CC(=O)[C@@H]3[C@@H]2C[C@](C)(C)CC1)C#N [Bardoxolone methyl] | -6.28 |
| COc1cc2nc(N3CCCN(C)CC3)nc(NC3CCN(Cc4ccccc4)CC3)c2cc1OC | -5.28 |
| NC\1=N\C(=O)N(\C=C1F)[C@H]2C[C@H](O)[C@@H](CO)O2 | -8.38 |
| ClC1=CC=C(C=C1)C(C#N)C2=C(Cl)C=C(C=C2Cl)N3\N=C/C(=O)NC3=O (stereo not drawn) [Diclazuril] | -4.78 |
| CNC(=O)c1ccc(Nc2cc(Nc3ccccc3[S+](=O)([O-])C(C)C)c3cc[nH]c3n2)nc1 | -4.78 |
| C[C@H]1C[C@@H]2[C@H](CC[C@@]3(C)[C@H]2CC[C@]3(OC(C)=O)C(C)=O)[C@@]\4(C)CCC(=O)\C=C14 [Medroxyprogesterone acetate] | -5.23 |
| COc1cc2ncnc(-n3nc(-c4ccccn4)nc3N)c2cc1OC | -5.03 |
| CCOC(=O)N1CCN(/[N+]([O-])=N/Oc2ccc([N+](=O)[O-])cc2C#N)CC1 [JS-59-4] | -4.78 |
| CC\1=C(C(\N=C(/N1)C2=CC(=NC=C2)Cl)C3=C(F)C=C(Cl)C=C3)/C(=O)NC4=C(F)C=C5[NH]N=CC5=C4 (stereo not drawn) [GSK-25] | -5.08 |
| NC(=O)N1CCC(CC(=O)N2CCC([C@H]3c4ncc(Br)cc4CCc4cc(Cl)cc(Br)c43)CC2)CC1 [Lonafarnib] | -4.78 |
| N#Cc1c(NC(=O)c2cccc3ccccc23)sc2c1CCCC2 [TCS JNK 5a] | -5.88 |
| CC(C)NC[C@@H](C(=O)N1CCN(c2ncnc3c2[C@H](C)C[C@H]3O)CC1)c1ccc(Cl)cc1 [GDC-0068] | -6.48 |
| COC1=CC=CC2=C1C(=NC(=N2)C3=CC=CS3)NN4C(=O)\C=C(C)/C4=O | -5.18 |

| SMILES | AC50 for growth inhibition (log10 M) |
| --- | --- |
| COc1cc(C(C)C)c(Oc2cnc(NC(CO)CO)nc2N)cc1I [Ro 51] | -6.63 |
| Cc1ccc(C(=O)Nc2cccc(C(F)(F)F)c2)cc1-c1ccc2nc(NCCN3CCOCC3)ncc2c1 [AMG-47a] | -5.28 |
| CCN(CC)CCCCNc1ncc2c(n1)N(C)C(=O)N(c1c(Cl)c(OC)cc(OC)c1Cl)C2 | -4.78 |
| CCOC(=O)N1c2ccc(C(F)(F)F)cc2[C@@H](N(Cc2cc(C(F)(F)F)cc(C(F)(F)F)c2)C(=O)OC)C[C@H]1CC [Torcetrapib] | -4.73 |
| CC(NCc1ccc2c(c1)[nH]/c(=N\C(=O)c1ccc(-c3cn[nH]c3)s1)n2CC(C)(C)O)C(C)(C)C (stereo not drawn) | -5.43 |
| OC[C@H]1O[C@H]([C@@H](F)[C@@H]1O)N2\C=C/C(=O)NC2=O | -5.08 |
| COc1cc2c(NC3CCN(C(C)C)CC3)nc(C3CCCCC3)nc2cc1OCCCN1CCCC1 [UNC-0638] | -5.58 |
| CCCCOc1c(C(=O)c2c(F)cc(C)cc2F)cnc2[nH]ncc12 | -5.63 |
| CCN1CCC(n2cc(CNc3cc(Cl)c4ncc(C#N)c(Nc5ccc(F)c(Cl)c5)c4c3)nn2)CC1 [Wyeth Cot inhibitor-2] | -5.03 |
| CCC[C@H](NC(=O)/C(C#N)=C/c1cccc(Br)n1)c1ccccc1 [Degrasyn] | -5.58 |
| O=C(NC1CCNCC1)c1n[nH]cc1NC(=O)c1c(Cl)cccc1Cl [AT-7519] | -7.18 |
| CCc1cnn2c(NCc3ccc[n+]([O-])c3)cc(N3CCCC[C@H]3CCO)nc12 [Dinaciclib] | -8.03 |
| CN(C)c1ccc2nc3ccc(N(C)C)cc3[s+]c2c1 [Methylene blue] | -5.83 |
| O=C1c2c(O)ccc(O)c2C(=O)c2c(NCCNCCO)ccc(NCCNCCO)c21 [Mitoxantrone] | -7.13 |
| S=P(N1CC1)(N1CC1)N1CC1 [ThioTEPA] | -5.48 |
| C[C@](O)(CS(=O)(=O)c1ccc(F)cc1)C(=O)Nc1ccc(C#N)c(C(F)(F)F)c1 [(R)-Bicalutamide] | -6.33 |
| C[C@@H](Oc1cc(-c2cnn(C3CCNCC3)c2)cnc1N)c1c(Cl)ccc(F)c1Cl [Crizotinib] | -4.68 |
| CC1(C)OC/2=C(\[C@H](NCC3=CC=CC=C3)[C@@H]1O)C(=O)C4=CC=CC=C4C2=O | -5.43 |
| CCOc1cc2ncc(C#N)c(Nc3ccc(F)c(Cl)c3)c2cc1NC(=O)/C=C/CN(C)C [Pelitinib] | -7.38 |
| COC(=O)/C=C/C(=O)OC [Dimethyl fumarate] | -5.68 |
| Cc1cccc2c1CC[C@H](CN1CCC(c3c(Cl)cccc3Cl)CC1)C[C@@H]2O | -4.73 |
| CN1C(=O)C(=C/2N(C(=O)N(C3CC3)C(=O)C2=C1/NC4=CC=C(I)C=C4F)C5=CC=CC(=C5)NC(C)=O)\C [Trametinib] | -5.03 |
| CC[S+](=O)([O-])N1CC(CC#N)(n2cc(-c3ncnc4[nH]ccc34)cn2)C1 [Baricitinib] | -4.88 |
| Cc1cccc(-c2[nH]c(C(C)(C)C)nc2-c2ccc3nccnc3c2)n1 | -4.83 |
| CCOc1cc2c(c(F)c1OCC)C(=N)N(CC(=O)c1cc(N3CCOCC3)c(OC)c(C(C)(C)C)c1)C2 [E5555] | -5.03 |
| COc1ccc(-c2cc3nccn3c(Nc3ncccc3C(N)=O)n2)cc1OC [BAY61-3606] | -5.53 |

— the supplement of paper PMC5412046
